Experimental data published in patent US20070134349A1, “Methods of treating hematological malignancies” (DUKE UNIVERSITY, priority 2005, published 2007).

Assays:
NB4 cells [1] = assay: Differentiation markers CD11c/CD11b by flow cytometry in NB4 cells; assay type: cell-based; conditions: for NB4 differentiation: FIG. 10; for NB4 cell differentiation (CD11c): 21 h
Procedure: (§1) NB4 cells were provided by Dr. Ronald Evans (Salk Institute, La Jolla, Calif.). NB4-R4 cells were provided by Dr. Wilson Miller (McGill University, Montreal, Canada). HL-60, U-937, and Kasumi-1 cells were obtained from the American Type Culture Collection (Rockville, Md.). NB4 and NB4-R4 cells were grown in RPMI medium 1640 containing 10% fetal bovine serum. U-937 cells were grown in RPMI medium 1640 containing 10 mM HEPES, 1 mM sodium pyruvate, 4.5 g/L glucose, and 10% fetal bovine serum. HL-60 cells were grown in Iscove's Modified Dulbecco's medium containing 20% fetal bovine serum. Kasumi-1 cells were grown in RPMI medium 1640 containing 10 mM HEPES, 1 mM sodium pyruvate, 4.5 g/L glucose, and 20% fetal bovine serum.
(§2) To determine the percentage of cells that express differentiation markers, cells were washed once and resuspended in RPMI medium 1640 containing 3% fetal bovine serum. Phycoerythrin (PE)-conjugated CD11b, 5 Allophycocyanin (APC)-CD11c or control antibodies (BD Pharmingen, San Diego, Calif.) were added into cell suspension. After 30 minutes of incubation in the dark at 4° C., the cells were washed twice and resuspended in RPMI medium 1640 containing 7-amino actinomycin D (AAD) (for dead cell exclusion) and analyzed by FACScan (Becton Dickinson).

RARE-TK-Luc reporter = RARE-TK-Luc reporter transient transfection in NB4 cells; assay type: cell-based; conditions: ATRA 1 μM, 19 h
Procedure: Electroporation was performed using a Gene Pulser (BioRad, Hercules, Calif.) apparatus at 300 V and 960 μF capacity. […] Cells were harvested 19 h after transfection/treatment for luciferase and β-galactosidase activities.

NB4-R4 cells = assay: CD11c/CD11b expression by flow cytometry in ATRA-resistant NB4-R4 cells; assay type: cell-based; conditions: ATRA treatment, 3 days
Procedure: as §1, §2

PML-RARα = target: T1, PML-RARα (Homo sapiens, UniProt P10276+P29590); assay: Western blot of PML-RARα and RARα in NB4 cells; assay type: cell-based; conditions: 3 days
T1 construct: PML portion (fusion partner, UniProt P29590); endogenous in cells; host or cells: NB4 cells
T1 sequence (P29590+P10276 with tags, fused parts or gaps): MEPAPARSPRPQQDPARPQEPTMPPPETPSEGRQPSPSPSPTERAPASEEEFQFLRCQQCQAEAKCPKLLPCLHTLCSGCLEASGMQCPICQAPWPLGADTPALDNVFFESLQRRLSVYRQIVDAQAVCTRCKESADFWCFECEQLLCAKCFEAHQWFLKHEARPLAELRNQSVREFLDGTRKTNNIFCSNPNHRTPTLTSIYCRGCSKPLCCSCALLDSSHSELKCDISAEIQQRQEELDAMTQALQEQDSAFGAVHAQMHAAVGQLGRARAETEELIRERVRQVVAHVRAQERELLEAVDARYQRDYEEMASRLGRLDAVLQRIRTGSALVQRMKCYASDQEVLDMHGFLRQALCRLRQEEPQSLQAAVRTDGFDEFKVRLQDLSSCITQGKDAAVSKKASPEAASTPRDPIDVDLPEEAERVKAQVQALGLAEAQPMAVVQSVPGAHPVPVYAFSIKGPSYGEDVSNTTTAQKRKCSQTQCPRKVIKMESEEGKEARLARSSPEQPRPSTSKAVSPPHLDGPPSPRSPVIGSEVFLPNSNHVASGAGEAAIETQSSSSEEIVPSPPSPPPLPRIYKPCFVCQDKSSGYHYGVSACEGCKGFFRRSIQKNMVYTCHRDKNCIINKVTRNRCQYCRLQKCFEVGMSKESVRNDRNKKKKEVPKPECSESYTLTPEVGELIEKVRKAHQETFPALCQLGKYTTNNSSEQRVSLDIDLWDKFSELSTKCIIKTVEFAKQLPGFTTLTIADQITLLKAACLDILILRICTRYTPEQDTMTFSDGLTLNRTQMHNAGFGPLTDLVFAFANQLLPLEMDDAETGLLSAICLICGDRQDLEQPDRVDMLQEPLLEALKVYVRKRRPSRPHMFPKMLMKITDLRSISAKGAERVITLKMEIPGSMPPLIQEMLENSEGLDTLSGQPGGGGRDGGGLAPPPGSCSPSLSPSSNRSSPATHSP
Procedure: (§3) Whole-cell lysates were prepared by washing the cells with PBS and resuspending them in 1 ml of lysis buffer (1× phosphate-buffered saline, 1 mM EDTA, 1.5 mg/ml of iodoacetamide, 100 μM sodium orthovanadate, 0.5% Triton X-100, 20 mM β-glycerolphosphate, 0.2 mM phenylmethylsulfonyl fluoride, and 1× complete protease inhibitor cocktail). After clarification by a 15-min centrifugation in a microcentrifuge at 4° C., the resulting supernatant was collected. 20-50 μg of protein extracts were separated on a 10% SDS-polyacrylamide gel and transferred to a nitrocellulose membrane. The membrane was blocked with 5% nonfat milk followed by incubation with antibodies. The immunocomplex was visualized by chemiluminescence.

ERK1/2 [2] = assay: Western blot of phospho-ERK1/2 in U-937 cells; assay type: cell-based; conditions: higher concentrations, 18 h, total ERK1/2 unaffected
Procedure: as §3

ERK1/2 [3] = assay: Western blot of phospho-ERK1/2 in NB4 cells; assay type: cell-based; conditions: 24 h
Procedure: as §3

U-937 cells [4] = assay: CD11c expression by flow cytometry in U-937 cells; assay type: cell-based; conditions: lower concentrations, 3 days
Procedure: as §1, §2

C/EBPβ = assay: Western blot of phospho-C/EBPβ (Thr-235) and C/EBPβ in NB4 cells; assay type: cell-based
Procedure: as §3

[5] = in humans; cited from earlier work
H3 [6] = assay: Western blot of acetyl-H3 and phospho-H3 in U-937 cells; assay type: cell-based; conditions: higher concentrations, 18 h
Procedure: as §3

U-937 cells [7] = assay: Annexin V binding in U-937 cells; assay type: cell-based; conditions: higher concentrations, 3 days
Procedure: as §1
(§4) To determine the percentage of cells that undergo apoptosis, after incubation with APC-CD11c antibody in the dark at 4° C., cells were washed twice with PBS and incubated at room temperature for 15 min with PE-conjugated Annexin-V (BD Pharmingen) and 7-AAD in binding buffer (10 mM HEPES, pH 7.4, 140 mM NaCI, 2.5 mM CaCl2) and analyzed by FACScan for CD11c expression and Annexin V binding. Apoptotic cells are those that stained positive for Annexin V and negative for 7-AAD.

NB4 cells [8] = assay: Apoptosis by Annexin V binding (flow cytometry) in NB4 cells; assay type: cell-based
Procedure: as §1, §4

HL-60 cells = assay: CD11c expression by flow cytometry in HL-60 cells; assay type: cell-based; conditions: 48 h
Procedure: as §1, §2

[9] = plasma, humans; cited from earlier work
histones H3 and H4 = assay: Western blot of acetylated histones H3 and H4 in NB4 cells; assay type: cell-based; conditions: concentrations required for apoptosis, NB4 cells, 24 h
Procedure: as §3

H3 [10] = assay: Western blot of phospho-H3 (Ser-10) in NB4 cells; assay type: cell-based; conditions: for H3 phosphorylation (Ser-10): NB4 cells, 24 h
Procedure: as §3

Kasumi-1 cells = assay: CD11c expression by flow cytometry in Kasumi-1 cells; assay type: cell-based; conditions: 3 days
Procedure: as §1, §2

[11] = p38 inhibitor treatment of NB4 cells (data not shown)

## COCCC(=O)O [3-methoxypropionic acid]
NB4 cells [1]; NB4 cells
  NB4 differentiation: potent inducers

## CC1=C(/C=C/C(C)=C/C=C/C(C)=C/C(=O)O)C(C)(C)CCC1 [ATRA, all-trans-Retinoic acid]
RARE-TK-Luc reporter
  transcription of RARE-containing reporter gene (RARE-TK-Luc): can activate transcription
NB4-R4 cells
  sensitivity of NB4-R4 cells versus NB4 parental line (CD11c, CD11b): less sensitive
NB4 cells [1]; 0.1 nM ATRA, NB4 cells, 24 h
  effect on percentage of cells expressing CD11c compared with 1 nM MAA: same order of magnitude
NB4 cells [1]; ATRA 10 nM alone, NB4 cells, 24 h, from 26%
  percentage of cells expressing CD11b: 51%
NB4 cells [1]; ATRA 1 μM
  NB4 cell differentiation (CD11c): can induce NB4 cell differentiation
PML-RARα
  expression level of PML-RARα fusion protein: induced the degradation

## CCCC(=O)O [BA, butyric acid]
ERK1/2 [2]
  activity of ERK1/2 (phospho-ERK1/2): downregulate
ERK1/2 [3]; higher concentrations (no differentiating effects), total ERK not decreased
  levels of phosphorylated ERK: dramatically decreased
ERK1/2 [3]; lower concentrations
  constitutive levels of phosphorylated ERK: did not change
U-937 cells [4]
  expression of the differentiation marker CD11c: increasing expression
C/EBPβ; 17 h
  level of phosphorylated C/EBPβ at Thr-235: increases phosphorylation
C/EBPβ; lower concentrations, 24 h
  phosphorylation of C/EBPβ at Thr-235: maximal phosphorylation
[5]
  tolerability: well-tolerated
NB4 cells [1]; BA 0.5 mM and 1 mM, NB4 cells, 24 h
  differentiation (CD11c): differentiation was observed
NB4 cells [1]; BA 1 mM
  NB4 cell differentiation (CD11c): can induce NB4 cell differentiation
NB4 cells [1]; BA 5 mM (or higher), NB4 cells, 24 h
  differentiation (CD11c): failed to differentiate
NB4 cells [1]; NB4 cells
  NB4 differentiation: potent inducers
H3 [6]
  H3 acetylation and phosphorylation: increase
U-937 cells [7]
  apoptosis (Annexin V): inducing apoptosis
NB4 cells [8]; BA 1 mM, NB4 cells, 21 h
  apoptosis (Annexin V): effectively induces apoptosis
HL-60 cells
  differentiation as evidenced by expression of CD11c: induce differentiation
[9]
  half-life in vivo t1/2: 6 min
Histones H3 and H4
  H3 and H4 acetylation: robust acetylation
H3 [10]; higher concentrations
  H3 phosphorylation (Ser-10): dramatically increased
H3 [10]; lower concentrations
  H3 phosphorylation (Ser-10): without effect
Kasumi-1 cells
  percentage of cells expressing CD11c: increased

## O=C(CCCCCCC(=O)Nc1ccccc1)NO [SAHA, suberoylanilide hydroxamic acid]
NB4 cells [1]; SAHA at lower concentrations, NB4 cells (data not shown)
  differentiation: facilitated differentiation
NB4 cells [8]; SAHA at higher concentrations, NB4 cells (data not shown)
  apoptosis: effectively induced apoptosis

## C[S+]([O-])c1ccc(-c2nc(-c3ccncc3)c(-c3ccc(F)cc3)[nH]2)cc1 (centres unmarked) [SB203580]
NB4 cells [8]; [11]
  effect on apoptosis: little effect
H3 [10]; [11]
  effect on H3 phosphorylation at Ser-10: little effect

## N#CC(=C(/N)Sc1ccccc1N)/C(C#N)=C(\N)Sc1ccccc1N [U0126]
C/EBPβ; U0126 5 μM, 17 h, absolute protein level unchanged
  MAA- or BA-induced phosphorylation of C/EBPβ at Thr-235: blocks
NB4 cells [1]; U0126 pretreatment 2 h, then ATRA 1 μM 21 h, NB4 cells
  ATRA-induced differentiation: less dramatic effect
NB4 cells [1]; U0126 pretreatment 2 h, then MAA 5 mM or BA 1 mM 21 h, NB4 cells
  MAA and BA-dependent differentiation as assessed by CD11c expression: dramatically reduced
NB4 cells [8]
  number of BA-treated cells undergoing apoptosis: significantly increased

## CCCC(CCC)C(=O)O [VPA, valproic acid]
NB4 cells [1]; NB4 cells, FIG. 9
  percentage of NB4 cells expressing CD11c: did not significantly increase
NB4 cells [8]; as concentrations increase, NB4 cells, FIG. 9
  apoptosis: potently induces apoptosis

## CCOCC(=O)O [ethoxyacetic acid]
NB4 cells [1]; NB4 cells
  NB4 differentiation: potent inducers

## CCC(=O)O [propionic acid]
NB4 cells [1]; NB4 cells
  NB4 differentiation: potent inducers

## [Na+].[Na+].[Na+].[O]=[V]([O-])([O-])[O-] [sodium orthovanadate]
NB4 cells [8]; tyrosine phosphatase inhibitor treatment (data not shown)
  apoptosis of NB4 cells in response to HDACI treatment: did not inhibit

## Phenylbutyrate
[5]
  tolerability: well-tolerated
[9]
  half-life in vivo t1/2: 60 min

## arsenic trioxide [ATO]
NB4 cells [8]; ATO 0.1 μM, 0.5 μM alone, NB4 cells, 3 days
  apoptosis (Annexin V): does not induce significant amount of apoptosis
PML-RARα
  expression level of PML-RARα fusion protein: induced the degradation
